The values that follow come from patent US4119710A, “Bronchospasmolytic 1-(p-amino-phenyl)-2-amino-ethanols-(1) and salts” (Boehringer Ingelheim GmbH, priority 1972, dated 1978).

Series [1] deals with T1, β1 -receptors (Felis catus, UniProt Q9TST6).
T1 construct: tested on anesthetized cats; from tissue; host or cells: living anesthetized cat, heart (heart rate)
Nature of the series: β1-blocking activity: antagonism to tachycardia provoked by N-isopropyl-noradrenalin sulfate in anesthetized cats. It is filed as in vivo. Particulars: cat, iv. As to the method:
(§1) The compounds of this invention were tested for toxicity and with regard to their action on the β-receptors in warm-blooded animals, such as cats and guinea pigs, by the methods described below, and the following test results were obtained for representative species of the genus, where
The β1 -blocking activity was tested on anesthetized cats as antagonism to tachycardia provoked by a standard dose of 1.0 γ/kg i.v. of N-isopropyl-noradrenalin sulfate. From the average percentage reduction in heart rate acceleration caused by N-isopropyl-noradrenalin sulfate, obtained by various doses of the test compound in question, a median effective dose (ED50) was determined by graphic extrapolation (see Tables II and III).

The target of series [2] is T2, β2 -receptors (Cavia porcellus, UniProt Q8K4Z4).
T2 construct: tested on anesthetized guinea pigs; from tissue; host or cells: living anesthetized guinea pig, airways (Konzett-Rossler)
In words: β2-blocking activity: antagonism to broncholytic activity of N-isopropyl-noradrenalin sulfate in anesthetized guinea pigs (Konzett-Rossler). Type of series: in vivo. Particulars: guinea pig, iv, d(+)-isomers, 5 γ/kg i.v. N-isopropyl-noradrenalin sulfate after 20 γ/kg i.v. acetylcholine (Table III), read-out: Blocking Action on β2 -receptors ED50. The procedure:
as §1
The β2 -blocking activity was tested on anesthetized guinea pigs as antagonism to the broncholytic activity which is observed upon administration of 5 γ/kg body weight i.v. of N-isopropyl-noradrenalin sulfate in the test arrangement according to Konzett-Rossler, following the inducement of a bronchospasm caused by a standard dose of 20 γ/kg body weight i.v. of acetylcholine (see Table III).

A short description of series [3]: acute toxicity in mice (LD50, Litchfield and Wilcoxon). Conditions: mouse, in vivo, iv, groups of 10, i.v. As to the method:
as §1
The acute toxicity of the compounds was determined on groups of 10 mice.

The target in series [4] is T2, β2 -receptors. Nature of the series: β2-mimetic activity: antagonism to acetylcholine bronchospasm in anesthetized guinea pigs (Konzett-Rossler). It is filed as in vivo. Conditions: for ED50: guinea pig, iv, bronchospasm by 20 γ/kg acetylcholine i.v., test compound i.v., graphic extrapolation (Table I); for Duration of activity (β2 -mimetic activity): i.v. (Table I). The procedure: as §1
The β2 -mimetic activity was tested on anesthetized guinea pigs as antagonism to bronchospasm provoked by intravenous administration of 20 γ of acetylcholine per kg body weight (according to the method of Konzett-Rossler) by intravenous administration of the test compound. From the average percentage decrease of the bronchospasm produced by various doses of the test compound, a median effective dose (ED50) was determined by graphic extrapolation (see Table I).

Where [5] appears, read: d(+)-isomers, tachycardia by 1.0 γ/kg i.v. N-isopropyl-noradrenalin sulfate (Table III), read-out: Blocking Action on β1 -receptors ED50.
[6] abbreviates: deaths within 14 days, d(+)-isomers (Table III), read-out: acute toxicity LD50 (Table III).
[7] abbreviates: tachycardia by 1.0 γ/kg i.v. N-isopropyl-noradrenalin sulfate, graphic extrapolation (Table II), read-out: Blocking action on the β1 -receptors ED50.
[8] abbreviates: deaths within 14 days (Table II), read-out: LD50.

Structures can show the parent of a compound that is named as a salt. Where two headings read alike, the source gives them in different places.

T1 sequence (Q9TST6 whole entry): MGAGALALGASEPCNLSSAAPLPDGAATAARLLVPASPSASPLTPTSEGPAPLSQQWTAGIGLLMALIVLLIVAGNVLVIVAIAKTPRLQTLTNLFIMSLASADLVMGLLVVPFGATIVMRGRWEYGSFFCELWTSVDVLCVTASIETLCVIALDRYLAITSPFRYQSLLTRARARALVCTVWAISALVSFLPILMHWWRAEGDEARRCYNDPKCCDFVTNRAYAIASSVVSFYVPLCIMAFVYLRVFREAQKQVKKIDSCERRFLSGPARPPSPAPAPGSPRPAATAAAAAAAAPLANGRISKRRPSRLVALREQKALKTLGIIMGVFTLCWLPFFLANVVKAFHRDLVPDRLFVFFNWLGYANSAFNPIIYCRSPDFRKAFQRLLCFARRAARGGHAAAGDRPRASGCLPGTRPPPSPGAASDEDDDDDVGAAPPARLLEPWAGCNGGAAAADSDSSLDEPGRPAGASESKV
T2 sequence (Q8K4Z4 whole entry): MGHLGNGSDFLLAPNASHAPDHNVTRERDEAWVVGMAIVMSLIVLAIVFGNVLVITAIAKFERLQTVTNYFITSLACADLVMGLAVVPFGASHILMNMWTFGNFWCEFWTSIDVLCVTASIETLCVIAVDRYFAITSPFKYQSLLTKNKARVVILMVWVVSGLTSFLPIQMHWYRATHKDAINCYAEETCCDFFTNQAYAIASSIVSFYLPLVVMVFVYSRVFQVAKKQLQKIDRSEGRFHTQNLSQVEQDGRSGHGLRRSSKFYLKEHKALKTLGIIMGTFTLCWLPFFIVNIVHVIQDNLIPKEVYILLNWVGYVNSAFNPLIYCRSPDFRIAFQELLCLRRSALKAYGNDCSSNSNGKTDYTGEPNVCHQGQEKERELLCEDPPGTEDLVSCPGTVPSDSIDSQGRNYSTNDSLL

As a reminder, the ED50 is the dose that gives a 50% effect, or the effect in half of the subjects. In general, LD50 refers to the dose at which mortality reaches 50%. Regarding `CC(C)(C)NCC(O)c1cc(F)c(N)c(Br)c1` (single isomer, unassigned) [A-d(+), d-1-(4'-amino-3'-bromo-5'-fluoro-phenyl)-2-tert.butylamino-ethanol hydrochloride], the ED50 was 0.0084 mg/kg in series [1] (setting [5]) and greater than 2 mg/kg in series [2]. Besides, the LD50 at 336 h in series [3] (setting [6]) worked out at 37.2 mg/kg.
On the same counts, the results for `CC(C)(C)NCC(O)c1cc(F)c(N)c(Cl)c1` (single isomer, unassigned) [D-d(+), d-1-(4'-Amino-3'-chloro-5'-fluoro-phenyl)-2-tert.butylamino-ethanol] are 0.0062 mg/kg, greater than 2 mg/kg and 34.2 mg/kg.
Take `CC(C)(C)NCC(O)c1ccc(N)c(F)c1` (single isomer, unassigned) [E-d(+), d-1-(4'-amino-3'-fluoro-phenyl)-2-tert.butylamino-ethanol hydrochloride]: the ED50 in series [1] (setting [5]) is 0.0015 mg/kg; in series [2], greater than 2 mg/kg.
As to `CC(C)(C)NCC(O)c1cc(Cl)c(N)c(C(F)(F)F)c1` (single isomer, unassigned) [G-d(+), d-1-(4'-Amino-3'-chloro-5'-trifluoromethyl-phenyl)-2-tert.butylamino-ethanol], the ED50 is 0.0125 mg/kg in series [1] (setting [5]) and greater than 2 mg/kg in series [2]. The LD50 at 336 h in series [3] (setting [6]) came to 33.2 mg/kg.
As for `CC(C)(C)NCC(O)c1ccc(N)c(F)c1.Cl` (centres unmarked) [E, 1-(4'-amino-3'-fluoro-phenyl)-2-tert.butylamino-ethanol hydrochloride], in series [4], the ED50 is 0.018 mg/kg and the “Duration of activity (β2 -mimetic activity)” value (from here on “Duration of activity”) is greater than 80 min. The ED50 in series [1] (setting [7]) was 0.0135 mg/kg. Besides, the LD50 at 336 h in series [3] (setting [8]) is 69.2 mg/kg.
Regarding `CC(C)(C)NCC(O)c1cc(Cl)c(N)c(C(F)(F)F)c1` (centres unmarked) [G, 1-(4'-amino-3'-chloro-5'-trifluoromethyl-phenyl)-2-tert.butylamino-ethanolhydrochloride], the ED50 in series [4] is 0.0195 mg/kg; in series [1] (setting [7]), 0.0115 mg/kg. Also, the “Duration of activity” value in series [4] was greater than 130 min. The LD50 at 336 h in series [3] (setting [8]) is 36.5 mg/kg.
The like results for `CC(C)(C)NCC(O)c1cc(Cl)c(N)c(C#N)c1` (centres unmarked) [I, 1-(4'-amino-3'-chloro-5'-cyano-phenyl)-2-tert.butylamino-ethanol] were, in that order, 0.0002 mg/kg, 0.00074 mg/kg, greater than 95 min and 60 mg/kg.
The like results for `Cl.Nc1c(F)cc(C(O)CNC2CCC2)cc1Br` (centres unmarked) [K, 1-(4'-amino-3'-bromo-5'-fluoro-phenyl)-2-cyclobutylamino-ethanol hydrochloride] were, in that order, 0.058 mg/kg, 0.0015 mg/kg, greater than 50 min and 26.4 mg/kg.
Take `CC(C)NCC(O)c1cc(F)c(N)c(C#N)c1.Cl` (centres unmarked) [M, 1-(4'-amino-3'-fluoro-5'-cyano-phenyl)-2-isopropylamino-ethanol hydrochloride]: the “Duration of activity” value in series [4] was greater than 40 min. Besides, in series [1] (setting [7]), the ED50 is 0.00027 mg/kg. In series [3] (setting [8]), the LD50 at 336 h worked out at 66.4 mg/kg.
As for `CCCNCC(O)c1cc(Cl)c(N)c(C#N)c1.Cl` (centres unmarked) [Q, 1-(4'-amino-3'-chloro-5'-cyano-phenyl)-2-propylamino-ethanol hydrochloride], the figures for the ED50 in series [4] and in series [1] (setting [7]) were 0.027 mg/kg and 0.00076 mg/kg, respectively. Moreover, the “Duration of activity” value in series [4] is 50 min. The LD50 at 336 h in series [3] (setting [8]) was found to be 53.4 mg/kg.
On the same counts, the results for `CCC(C)NCC(O)c1cc(Cl)c(N)c(C#N)c1.Cl` (centres unmarked) [R, 1-(4'-amino-3'-chloro-5'-cyano-phenyl)-2-sec.butylamino-ethanol hydrochloride] are 0.0057 mg/kg, 0.00032 mg/kg, greater than 80 min and 40.4 mg/kg.
The like results for `CC(C)(CO)NCC(O)c1cc(Cl)c(N)c(C#N)c1` (centres unmarked) [S, 1-(4'-amino-3'-chloro-5'-cyano-phenyl)-2-(hydroxy-tert.butylamino)-ethanolhydrochloride] were, in that order, 0.01 mg/kg, 0.00076 mg/kg, greater than 65 min and 81.8 mg/kg.
On the same counts, the results for `CCC(C)(C)NCC(O)c1cc(Cl)c(N)c(C#N)c1.Cl` (centres unmarked) [T, 1-(4'-amino-3'-chloro-5'-cyano-phenyl)-2-tert.pentylamino-ethanol hydrochloride] are 0.0019 mg/kg, 0.00045 mg/kg, greater than 40 min and 33.7 mg/kg.
As to `Cl.N#Cc1cc(C(O)CNC2CCCC2)cc(Cl)c1N` (centres unmarked) [U, 1-(4'-amino-3'-chloro-5'-cyano-phenyl)-2-cyclopentylamino-ethanol hydrochloride], in series [4], the ED50 was 0.0098 mg/kg and the “Duration of activity” value was greater than 50 min. Besides, in series [1] (setting [7]), the ED50 is 0.0007 mg/kg. Besides, in series [3] (setting [8]), the LD50 at 336 h is 39.1 mg/kg.
The like results for `CC(Cc1ccc2c(c1)OCO2)NCC(O)c1cc(Cl)c(N)c(C#N)c1` (centres unmarked) [V, 1-(4'-amino-3'-chloro-5'-cyano-phenyl)-2-[1"-(3,4-methylenedioxy-phenyl)-2"-propylamino]-ethanol hydrochloride] were, in that order, 0.0027 mg/kg, greater than 65 min, 0.0014 mg/kg and 13.5 mg/kg.
The like results for `CC(C)(C)NCC(O)c1cc(C#N)c(N)c(C#N)c1.Cl` (centres unmarked) [X, 1-(4'-amino-3',5'-dicyano-phenyl)-2-tert.butylamino-ethanol hydrochloride] were, in that order, 0.0113 mg/kg, greater than 65 min, 0.00092 mg/kg and 166 mg/kg.
On the same counts, the results for `CC(C)(C)NCC(O)c1cc(Cl)c(N)c([N+](=O)[O-])c1` (centres unmarked) [Z, 1-(4'-amino-3'-chloro-5'-nitro-phenyl)-2-tert.butylamino-ethanol] are 0.0315 mg/kg, greater than 80 min, 0.0045 mg/kg and 42.4 mg/kg.
